Where a chain is given by its changes, count along the chain named.
Legend:
lysyl oxydase = biological target: T1, lysyl oxydase (Homo sapiens, UniProt P28300); details: specific lysyl oxidase inhibitor described in the literature (Kagan, 1994); cited from earlier work
T1 sequence (P28300 169-417): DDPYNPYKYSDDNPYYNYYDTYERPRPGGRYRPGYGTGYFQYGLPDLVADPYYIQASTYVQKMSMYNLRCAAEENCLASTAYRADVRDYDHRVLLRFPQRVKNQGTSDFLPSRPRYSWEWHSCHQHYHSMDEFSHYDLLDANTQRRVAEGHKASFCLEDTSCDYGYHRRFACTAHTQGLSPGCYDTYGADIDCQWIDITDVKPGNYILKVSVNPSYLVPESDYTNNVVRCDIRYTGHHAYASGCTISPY

[1] = biological target: T2, lysyl-oxydase d'aorte bovine (Bos taurus, UniProt P33072); test: Lysyl oxidase activity assay (tritium release from 3H elastin); type: biochemical; details: partially purified lysyl oxidase from fetal bovine aorta; 3H élastine substrate; 37°C; pH 8,0; read-out: concentration nécessaire pour inhiber 50% de l'activité de lysyl-oxydase
T2 construct: De l'aorte bovine foetale broyée est rincée par du tampon NaCI 0,12M; from tissue; host or cells: fetal bovine aorta
T2 sequence (P33072 170-418): T1 sequence (P28300 169-417) with S10T, G29S, A49P, S64A, T80S, A84X, N142S, G188N, T224S, D231E
Method: 1. Purification partielle de la lysyl-oxydase d'aorte bovine
Ce protocole est inspiré de celui de (WILLIAMS et KAGAN, Anal. Biochem. 149, 430-437, 1985), et de (KAGAN et al. Biochem. J. 177, 203-214 (1979)), qui a été sensiblement modifié.
Toutes les étapes sont effectuées à 4 °C ou dans la glace.
De l'aorte bovine foetale broyée est rincée par du tampon NaCI 0,12M, NaPi 16 mM, pH 7,7 puis par du NaPi 16 mM, pH 7,7 (tampon PB). La lysyl oxydase est extraite du résidu par de l'urée 4 M (concentration finale dans le tampon PB). Le surnageant obtenu après centrifugation à 10.000 g pendant 30 minutes est dilué deux fois dans du PB puis incubé avec de la DEAE-cellulose pendant 3 heures. La résine est mise en colonne et rincée successivement par du tampon PB contenant de l'urée 2M , du tampon PB puis du tampon PB contenant du NaCI 0,4 M.
La lysyl oxydase est éluée à partir de la DEAE-cellulose par de l'urée 6M dans du tampon PB. Les fractions présentant une absorbance à 280 nm sont réunies et dialysées pendant une nuit contre du tampon PB en présence de gel de Bleu de Cibacron (Biorad). Le gel est ensuite mis en colonne, et après des rinçages successifs par du tampon PB, du tampon PB-NaCI 1M et à nouveau du tampon PB, la lysyl oxydase est éluée du gel de Bleu de Cibacron par de l'urée 6 M dans du tampon PB. […]

Compound | Ki (lysyl oxydase) | IC50 [1]
N#CCCN [βAPN, β amino-propionitrile] | 6 µM | 
O=S(=O)(O)c1cc2c(O)c(c1)Cc1cc(S(=O)(=O)O)cc(c1O)Cc1cc(S(=O)(=O)O)cc(c1O)Cc1cc(S(=O)(=O)O)cc(c1O)Cc1cc(S(=O)(=O)O)cc(c1O)Cc1cc(S(=O)(=O)O)cc(c1O)C2 |  | 1200 µM
